Laboratory results from patent publication US20250388604A1, “Compounds and Their Use as PDE4 Activators” (Mironid Limited, priority 2022, published 2025).

system: m-IMCD3 cells; test: Inhibition of PGE2-stimulated in vitro cyst formation in m-IMCD3 cells; type: cell-based, mouse; conditions: Mus musculus, mIMCD3, 144 h, 3 μM; mean cyst area, 100% for (DMSO + PGE2) and 0% for DMSO control; 6 days of culture; read-out: % Cyst area after incubation with 3 μM test compound
Procedure, shortened: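 Mean cyst area after 6 days, expressed relative to DMSO+PGE2 (100%) and DMSO alone (0%), from z-stack images. Mouse m-IMCD3 spheroids grew in collagen I/Matrigel gels and received PGE2 (100 nM final) with test compound (0.1% DMSO) starting 18–24 h post-plating, media refreshed at day 2 or 3.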

First: Cc1cc(F)ccc1C(=O)N1CCc2nc(N3C4CCC3CNC4)sc2C1 [Example 216, (2-(3,8-diazabicyclo[3.2.1]octan-8-yl)-6,7-dihydrothiazolo[5,4-c]pyridin-5(4H)-yl)(4-fluoro-2-methylphenyl)methanone]
Second: Cc1ccc(C(=O)N2CCc3nc(N4C5CCC4CNC5)sc3C2)c(C)c1 [Example 225, (2-(3,8-diazabicyclo[3.2.1]octan-8-yl)-6,7-dihydrothiazolo[5,4-c]pyridin-5(4H)-yl)(2,4-dimethylphenyl)methanone]
The activity at 3 µM of the first is lower: -3% for the first, -1% for the second.

Compared with `O=C(c1cccc2c1OCCC2)N1CCc2nc(N3C4CCC3CNC4)sc2C1` [Example 217, (2-(3,8-diazabicyclo[3.2.1]octan-8-yl)-6,7-dihydrothiazolo[5,4-c]pyridin-5(4H)-yl)(chroman-8-yl)methanone], `O=C(c1cccc2c1OCC2)N1CCc2nc(N3C4CCC3CNC4)sc2C1` [Example 230, (2-(3,8-diazabicyclo[3.2.1]octan-8-yl)-6,7-dihydrothiazolo[5,4-c]pyridin-5(4H)-yl)(2,3-dihydrobenzofuran-7-yl)methanone] is higher in activity at 3 µM: -3% for the first, 22% for the second.

Compared with `O=C(c1ccccc1C(F)F)N1CCc2nc(N3C4CCC3CNC4)sc2C1` [Example 218, (2-(3,8-diazabicyclo[3.2.1]octan-8-yl)-6,7-dihydrothiazolo[5,4-c]pyridin-5(4H)-yl)(2-(difluoromethyl)phenyl)methanone], `CC(F)(F)c1ccccc1C(=O)N1CCc2nc(N3C4CCC3CNC4)sc2C1` [Example 223, (2-(3,8-diazabicyclo[3.2.1]octan-8-yl)-6,7-dihydrothiazolo[5,4-c]pyridin-5(4H)-yl)(2-(1,1-difluoroethyl)phenyl)methanone] is higher in activity at 3 µM: 11% for the first, 14% for the second.

First: COc1cc(C)ccc1C(=O)N1CCc2nc(N3C4CCC3CNC4)sc2C1 [Example 219, (2-(3,8-diazabicyclo[3.2.1]octan-8-yl)-6,7-dihydrothiazolo[5,4-c]pyridin-5(4H)-yl)(2-methoxy-4-methylphenyl)methanone]
Second: COc1cc(F)ccc1C(=O)N1CCc2nc(N3C4CCC3CNC4)sc2C1 [Example 222, (2-(3,8-diazabicyclo[3.2.1]octan-8-yl)-6,7-dihydrothiazolo[5,4-c]pyridin-5(4H)-yl)(4-fluoro-2-methoxyphenyl)methanone]
The activity at 3 µM of the first is higher: 11% for the first, 4% for the second.

Going from `O=C(c1ccccc1C1CC1)N1CCc2nc(N3C4CCC3CNC4)sc2C1` [Example 220, (2-(3,8-diazabicyclo[3.2.1]octan-8-yl)-6,7-dihydrothiazolo[5,4-c]pyridin-5(4H)-yl)(2-cyclopropylphenyl)methanone] to `O=C(c1ccc(C2CC2)cc1)N1CCc2nc(N3C4CCC3CNC4)sc2C1` [Example 228, (2-(3,8-diazabicyclo[3.2.1]octan-8-yl)-6,7-dihydrothiazolo[5,4-c]pyridin-5(4H)-yl)(4-cyclopropylphenyl)methanone], the activity at 3 µM falls from -5% to -6%.

First: O=C(c1ccc(Cl)nc1)N1CCc2nc(N3C4CCC3CNC4)sc2C1 [Example 221, (2-(3,8-diazabicyclo[3.2.1]octan-8-yl)-6,7-dihydrothiazolo[5,4-c]pyridin-5(4H)-yl)(6-chloropyridin-3-yl)methanone]
Second: O=C(c1ccc(C(F)F)nc1)N1CCc2nc(N3C4CCC3CNC4)sc2C1 [Example 243, (2-(3,8-diazabicyclo[3.2.1]octan-8-yl)-6,7-dihydrothiazolo[5,4-c]pyridin-5(4H)-yl)(6-(difluoromethyl)pyridin-3-yl)methanone]
The activity at 3 µM of the first is lower: 0% for the first, 10% for the second.

Compared with `O=C(c1cccnc1Cl)N1CCc2nc(N3C4CCC3CNC4)sc2C1` [Example 224, (2-(3,8-diazabicyclo[3.2.1]octan-8-yl)-6,7-dihydrothiazolo[5,4-c]pyridin-5(4H)-yl)(2-chloropyridin-3-yl)methanone], `O=C(c1cccc2cccnc12)N1CCc2nc(N3C4CCC3CNC4)sc2C1` [Example 237, (2-(3,8-diazabicyclo[3.2.1]octan-8-yl)-6,7-dihydrothiazolo[5,4-c]pyridin-5(4H)-yl)(quinolin-8-yl)methanone] is higher in activity at 3 µM: 22% for the first, 37% for the second.

Going from `O=C(c1ccc(C(F)F)cc1)N1CCc2nc(N3C4CCC3CNC4)sc2C1` [Example 229, (2-(3,8-diazabicyclo[3.2.1]octan-8-yl)-6,7-dihydrothiazolo[5,4-c]pyridin-5(4H)-yl)(4-(difluoromethyl)phenyl)methanone] to `N#Cc1ccc(C(=O)N2CCc3nc(N4C5CCC4CNC5)sc3C2)cc1` [Example 239, 4-(2-(3,8-diazabicyclo[3.2.1]octan-8-yl)-4,5,6,7-tetrahydrothiazolo[5,4-c]pyridine-5-carbonyl)benzonitrile], the activity at 3 µM falls from -1% to -2%.

Going from `O=C(c1ccc(CC(F)(F)F)cc1)N1CCc2nc(N3C4CCC3CNC4)sc2C1` [Example 232, (2-(3,8-diazabicyclo[3.2.1]octan-8-yl)-6,7-dihydrothiazolo[5,4-c]pyridin-5(4H)-yl)(4-(2,2,2-trifluoroethyl)phenyl)methanone] to `O=C(c1cccc(F)c1)N1CCc2nc(N3C4CCC3CNC4)sc2C1` [Example 235, (2-(3,8-diazabicyclo[3.2.1]octan-8-yl)-6,7-dihydrothiazolo[5,4-c]pyridin-5(4H)-yl)(3-fluorophenyl)methanone], the activity at 3 µM falls from 5% to -3%.

First: O=C(c1cccc2c1OC(F)(F)O2)N1CCc2nc(N3C4CCC3CNC4)sc2C1 [Example 233, (2-(3,8-diazabicyclo[3.2.1]octan-8-yl)-6,7-dihydrothiazolo[5,4-c]pyridin-5(4H)-yl)(2,2-difluorobenzo[d][1,3]dioxol-4-yl)methanone]
Second: O=C(c1cccc2c1OCO2)N1CCc2nc(N3C4CCC3CNC4)sc2C1 [Example 234, (2-(3,8-diazabicyclo[3.2.1]octan-8-yl)-6,7-dihydrothiazolo[5,4-c]pyridin-5(4H)-yl)(benzo[d][1,3]dioxol-4-yl)methanone]
The activity at 3 µM of the first is lower: -2% for the first, 1% for the second.

Going from `O=C(c1cccc2c1CCO2)N1CCc2nc(N3C4CCC3CNC4)sc2C1` [Example 236, (2-(3,8-diazabicyclo[3.2.1]octan-8-yl)-6,7-dihydrothiazolo[5,4-c]pyridin-5(4H)-yl)(2,3-dihydrobenzofuran-4-yl)methanone] to `Cc1ccc(C(=O)N2CCc3nc(N4C5CCC4CNC5)sc3C2)c(C#N)c1` [Example 238, 2-(2-(3,8-diazabicyclo[3.2.1]octan-8-yl)-4,5,6,7-tetrahydrothiazolo[5,4-c]pyridine-5-carbonyl)-5-methylbenzonitrile], the activity at 3 µM falls from 27% to 5%.

Going from `COc1nc(F)ccc1C(=O)N1CCc2nc(N3C4CCC3CNC4)sc2C1` [Example 240, (2-(3,8-diazabicyclo[3.2.1]octan-8-yl)-6,7-dihydrothiazolo[5,4-c]pyridin-5(4H)-yl)(6-fluoro-2-methoxypyridin-3-yl)methanone] to `Cc1cc(F)ncc1C(=O)N1CCc2nc(N3C4CCC3CNC4)sc2C1` [Example 242, (2-(3,8-diazabicyclo[3.2.1]octan-8-yl)-6,7-dihydrothiazolo[5,4-c]pyridin-5(4H)-yl)(6-fluoro-4-methylpyridin-3-yl)methanone], the activity at 3 µM rises from -3% to 29%.

First: O=C(Oc1ccccc1)N1CCc2nc(N3C4CCC3CNC4)sc2C1 [Example 247, phenyl 2-(3,8-diazabicyclo[3.2.1]octan-8-yl)-6,7-dihydrothiazolo[5,4-c]pyridine-5(4H)-carboxylate]
Second: O=C(COc1ccccc1OCCO)N1CCc2nc(N3C4CCC3CNC4)sc2C1 [Example 250, 1-(2-(3,8-diazabicyclo[3.2.1]octan-8-yl)-6,7-dihydrothiazolo[5,4-c]pyridin-5(4H)-yl)-2-(2-(2-hydroxyethoxy)phenoxy)ethan-1-one]
The activity at 3 µM of the first is higher: 18% for the first, 17% for the second.

Going from `COC(C(=O)N1CCc2nc(N3C4CCC3CNC4)sc2C1)C1(C)CCCC1` (stereo not drawn) [Example 249, 1-(2-(3,8-diazabicyclo[3.2.1]octan-8-yl)-6,7-dihydrothiazolo[5,4-c]pyridin-5(4H)-yl)-2-methoxy-2-(1-methylcyclopentyl)ethan-1-one] to `CC1(C)CN(C(=O)[C@H](O)C2CCCC2)Cc2sc(N3C4CCC3CNC4)nc21` [Example 262, (2R)-1-(2-(3,8-diazabicyclo[3.2.1]octan-8-yl)-7,7-dimethyl-6,7-dihydrothiazolo[5,4-c]pyridin-5(4H)-yl)-2-cyclopentyl-2-hydroxyethan-1-one], the activity at 3 µM rises from -5% to 23%.

Going from `O=C(N1CCc2nc(N3C4CCC3CNC4)sc2C1)C(F)(F)c1ccnc(F)c1` [Example 251, 1-(2-(3,8-diazabicyclo[3.2.1]octan-8-yl)-6,7-dihydrothiazolo[5,4-c]pyridin-5(4H)-yl)-2,2-difluoro-2-(2-fluoropyridin-4-yl)ethan-1-one] to `COc1cc(F)cc(C#N)c1OCC(=O)N1CCc2nc(N3C4CCC3CNC4)sc2C1` [Example 253, 2-(2-(2-(3,8-diazabicyclo[3.2.1]octan-8-yl)-6,7-dihydrothiazolo[5,4-c]pyridin-5(4H)-yl)-2-oxoethoxy)-5-fluoro-3-methoxybenzonitrile], the activity at 3 µM rises from -6% to -4%.

First: CC(C)C(O)C(=O)N1Cc2sc(N3C4CCC3CNC4)nc2C(C)(C)C1 (stereo not drawn) [Example 259, 1-(2-(3,8-diazabicyclo[3.2.1]octan-8-yl)-7,7-dimethyl-6,7-dihydrothiazolo[5,4-c]pyridin-5(4H)-yl)-2-hydroxy-3-methylbutan-1-one]
Second: CC1(C)CN(C(=O)c2ccc(F)nc2)Cc2sc(N3C4CCC3CNC4)nc21 [Example 264, (2-(3,8-diazabicyclo[3.2.1]octan-8-yl)-7,7-dimethyl-6,7-dihydrothiazolo[5,4-c]pyridin-5(4H)-yl)(6-fluoropyridin-3-yl)methanone]
The activity at 3 µM of the first is lower: -6% for the first, -1% for the second.

Compound `O=C(CC1CCCC1)N1Cc2sc(N3C4CCC3CNC4)nc2C2(CC2)C1` [Example 265, 1-(2′-(3,8-diazabicyclo[3.2.1]octan-8-yl)-4′H-spiro[cyclopropane-1,7′-thiazolo[5,4-c]pyridin]-5′(6′H)-yl)-2-cyclopentylethan-1-one] has an activity at 3 µM of -3%.
